From PubChem BioAssay AID504778 (National Center for Advancing Translational Sciences (NCATS), 2011)

System: Caco-2 monolayer, B->A permeability, LC-MS/MS
Experiment: Enhancers of SMN2 Splice Variant Expression: Caco-2 Permeability Profiling
Conditions: stronger effect = higher value
Excerpt: Spinal muscular atrophy (SMA) is caused by insufficient levels of the survival motor neuron protein SMN. The SMN locus on chromosome 5q13 contains two inverted copies of SMN called SMN1 and SMN2 which are 99% identical at the amino acid level. SMN1 is a fully functional protein and SMN2 skips exon 7 90% of the time. Skipping of exon 7 produces non-functional protein product. 10% of the SMN2 protein includes exon 7 and is fully functional. In the SMA disease state, mutations in the SMN1 locus are the cause of the disease state. Because only 10% of SMN2 is of the fully functional form, it is not sufficient to overcome the deficiency produced by the loss of the SMN1 product. A therapy that either increase the amount of SMN2 product made or to increase the inclusion of exon 7 has been proposed for the treatment of SMA. After screening and medicinal chemistry efforts a probe was identified and is further characterized in this in vitro ADME assay. This Caco-2 permeability assay predicts the in vivo absorption of the lead across the intestinal lining by using a Caco-2 cell line and measuring the lead's rate of transport […]. […] NIH Chemical Genomics Center [NCGC] NIH Molecular Libraries Probe Production centers Network [MLPCN] […]
1. […] The T0, LY and T90, LY plates are read by FlexStation 3 at excitation of 485 nm and emission of 535 nm to determine LY permeability. […]

Papp B->A: 12 10^-6 cm/s
Structure (SMILES): O=C(O)C1CCN(c2nc(-c3ccc(Br)cc3)cs2)CC1
